What was measured:
[1] = system: MKN1 cells (KRAS amplification); experiment: 3D Cell viability assay in MKN1 cells (Biological Example 6); type: cell-based; conditions: Homo sapiens, MKN-1; MKN (MKN1, KRAS amplification) spheroids, 72 hours
Method in brief: (§1)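 Spheroids were formed from 1000 cells/well in ultra-low attachment plates over 48 h at 37 °C in medium with 10% FBS, then exposed to a 9-point, three-fold compound dilution series (0.25% DMSO) for 72 h. Viability was read by CellTiter-Glo 3D luminescence; EC50 from four-parameter variable-slope fit.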

HPAC cells (KRAS G12D) [2] = experiment: Cell-based pERK HTRF assay in HPAC cells (Biological Example 5); conditions: Homo sapiens, HPAC
Method in brief: (§2)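 Inhibition of ERK phosphorylation is measured after cells grown in 10% FBS medium receive test compound for two hours at 37° C across nine threefold-spaced concentrations. Lysates are incubated with HTRF antibody pair for 24 h at 4° C, and EC50 is derived from the 665/620 nm signal ratio.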

H358 cells (KRAS G12C) [3] = experiment: 3D Cell viability assay in H358 cells (Biological Example 6); type: cell-based; conditions: Homo sapiens, NCI-H358; H358 (KRAS G12C) spheroids, 72 hours
Method in brief: as §1

AsPC-1 cells (KRAS G12D) [4] = experiment: 3D Cell viability assay in AsPC-1 cells (Biological Example 6); type: cell-based; conditions: Homo sapiens, ASPC1; AsPC-1 (KRAS G12D) spheroids, 72 hours
Method in brief: as §1

[5] = system: MKN1 cells (KRAS amplification); experiment: Cell-based pERK HTRF assay in MKN1 cells (Biological Example 5); conditions: Homo sapiens, MKN-1, MKN cells (MKN1, KRAS amplification)
Method in brief: as §2

SW1900 cells (KRAS G12D) [6] = experiment: Cell-based pERK HTRF assay in SW1900 cells (Biological Example 5); conditions: Homo sapiens, SW1990, SW1990 cells (text: SW1900, KRAS G12D)
Method in brief: as §2

SW1900 cells (KRAS G12D) [7] = experiment: 3D Cell viability assay in SW1900 cells (Biological Example 6); type: cell-based; conditions: Homo sapiens; SW1990 (text: SW1900, KRAS G12D) spheroids, 72 hours
Method in brief: as §1

H358 cells (KRAS G12C) [8] = experiment: Cell-based pERK HTRF assay in H358 cells (Biological Example 5); conditions: Homo sapiens, NCI-H358, H358 (KRAS G12C) cells
Protocol: (§3) Biological Example 5: Cell-based PERK HTRF assay in AsPC-1, SW1900, HPAC, Capan-2, RKN, H358, HCT116, KP-2, H1573, A549, MKN1, and HT1080 cells
(§4) The inhibition of ERK phosphorylation, as measured using the HTRF Advanced Phospho-ERK 1/2 (Thr202/Tyr204) Detection Assay kit (Perkin Elmer), was used to determine the effectiveness of test compounds in disrupting KRAS-driven protein/effector signaling in cells.
(§5) On day 1, cells were seeded into 96-well plates at 2.5×10^4 cells/well in 100 μL of complete growth media supplemented with 10% fetal bovine serum (FBS) and incubated at 37° C., in the presence of 5% CO2.
(§6) On day 2, cells were treated with compounds diluted in DMSO at 0.25% final DMSO concentration. Compounds were dosed in a 9-point concentration curve with three-fold dilution between concentrations. Cells were incubated in the presence of compound for two hours at 37° C. Following this treatment period, cells were harvested by aspirating the media, adding 40 μL of kit-supplied 1x lysis buffer per well, and shaking for 30 minutes at 250 rpm at room temperature.
(§7) Following cell lysis, samples were homogenized by pipetting up and down twenty times and 16 μL of cell lysate per well was transferred from the 96-well cell culture plate to two wells of a 384-well detection plate. A complete detection buffer was prepared by diluting D2 and Eu Cryptate antibodies 1:20 in kit-provided detection solution, 4 μL of complete detection buffer was then added to each well with lysate. Plates were incubated with gentle rocking for 24 hours at 4° C.
(§8) Following this incubation period, plates were centrifuged at 500×g for one minute and analyzed on a CLARIOstar plate reader. Data was imported into Microsoft Excel and the signal from the 665 nm channel was divided by the signal from the 620 nm channel. % pERK was calculated as: […]
(§9) Data was imported to the Prism software package (Graphpad) and EC50 values were calculated using the log (inhibitor) vs, response—variable slopc (Four parameters) model.

HT1080 cells (NRAS) = experiment: 3D Cell viability assay in HT1080 cells (Biological Example 6); type: cell-based; conditions: Homo sapiens, HT-1080; HT1080 (NRAS) spheroids, 72 hours
Method in brief: as §1

HPAC cells (KRAS G12D) [9] = experiment: 3D Cell viability assay in HPAC cells (Biological Example 6); type: cell-based; conditions: Homo sapiens, HPAC, 72 h, HPAC (KRAS G12D) spheroids
Method in brief: as §1

[10] = system: Capan-2 cells (KRAS G12V); experiment: 3D Cell viability assay in Capan-2 cells (Biological Example 6); type: cell-based; conditions: Homo sapiens; Capan-2 (KRAS G12V) spheroids, 72 hours
Protocol: Biological Example 6: 3D Cell viability assay in AsPC-1, SW1900, HPAC, Capan-2, RKN, H358, HCT116, KP-2, H1573, A549, MKN1, and HT1080 cells
The inhibition of cellular viability as a result of test compound treatment in a spheroid assay was measured using the CellTiter-Glow 3D Cell Viability Assay (Promega).
On Day 1, 1000 cells per well were seeded in 150 μL of complete growth media supplemented with 10% fetal bovine serum (FBS) and incubated at 37° C., in the presence of 5% CO2 in 96-well ultra-low attachment microplates (Corning) for 48 hours undisturbed to allow spheroids to form.
Following spheroid formation, cells were treated with compounds diluted in DMSO at 0.25% final DMSO concentration. Compounds were dosed in a 9-point concentration curve with three-fold dilution between concentrations. Cells were incubated in the presence of compound for 72 hours at 37° C., in the presence of 5% CO2.
Following this incubation period, the kit-provided CTG reagent was allowed to equilibrate for 30 minutes at room temperature, 150 μL of equilibrated CTG reagent was added to each well, and the plate was sealed before shaking at 250 rpm for 10 minutes at room temperature to lyse the cells, 150 μL of lysate per well was transferred to a 96-well plate and luminescence was read on a CLARIOstar plate reader.
Data was imported into the Prism software package (Graphpad) and EC50 values were calculated using the log (inhibitor) vs, response—variable slope (Four parameters) model.

AsPC-1 cells (KRAS G12D) [11] = experiment: Cell-based pERK HTRF assay in AsPC-1 cells (Biological Example 5); conditions: Homo sapiens, ASPC1, AsPC-1 (KRAS G12D) cells
Method in brief: as §2

[12] = system: Capan-2 cells (KRAS G12V); experiment: Cell-based pERK HTRF assay in Capan-2 cells (Biological Example 5); conditions: Homo sapiens, Capan-2, Capan-2 (KRAS G12V) cells
Protocol: as §3, §4, §5, §6, §7, §8, §9

RKN cells (KRAS G12V) [13] = experiment: Cell-based pERK HTRF assay in RKN cells (Biological Example 5)
Protocol: as §3, §4, §5, §6, §7, §8, §9

RKN cells (KRAS G12V) [14] = experiment: 3D Cell viability assay in RKN cells (Biological Example 6); type: cell-based; conditions: RKN (KRAS G12V) spheroids, 72 hours
Method in brief: as §1

| IC50 [1] [nM] | IC50 (HPAC cells (KRAS G12D) [2]) [nM] | IC50 (H358 cells (KRAS G12C) [3]) [nM] | IC50 (AsPC-1 cells (KRAS G12D) [4]) [nM] | IC50 [5] [nM] | IC50 (SW1900 cells (KRAS G12D) [6]) [nM] | IC50 (SW1900 cells (KRAS G12D) [7]) [nM] | IC50 (H358 cells (KRAS G12C) [8]) [nM] | IC50 (HT1080 cells (NRAS)) [nM] | IC50 (AsPC-1 cells (KRAS G12D) [11]) [nM] | IC50 [12] [nM] | IC50 (RKN cells (KRAS G12V) [13]) [nM] | SMILES | IC50 (HPAC cells (KRAS G12D) [9]) [nM] | IC50 [10] [nM] | IC50 (RKN cells (KRAS G12V) [14]) [nM] |
| --- | --- | --- | --- | --- | --- | --- | --- | --- | --- | --- | --- | --- | --- | --- | --- |
| 100 to 1000 | 100 to 1000 | ≤ 100 | ≤ 100 | ≤ 100 | ≤ 100 | ≤ 100 | ≤ 100 | > 1000 | 100 to 1000 | ≤ 100 |  | N#Cc1c(N)sc2c(F)ccc(-c3c(C(F)(F)F)cc4c(N5CCn6nc(N7CCOCC7)cc6C5)nc(OC[C@@]56CCCN5C[C@H](F)C6)nc4c3F)c12 [Compound 485] | 100 to 1000 | ≤ 100 |  |
| ≤ 100 | 100 to 1000 | ≤ 100 | ≤ 100 | ≤ 100 | ≤ 100 | ≤ 100 | ≤ 100 |  | ≤ 100 | ≤ 100 | ≤ 100 | CCN(c1nc(OC[C@@]23CCCN2C[C@H](F)C3)nc2c(F)c(-c3ccc(F)c4sc(N)c(C#N)c34)c(C(F)(F)F)cc12)[C@H]1C[C@@H]2COC(=O)N2C1 (atropisomer, axis not shown) [Compound 519] | 100 to 1000 | ≤ 100 | ≤ 100 |
| ≤ 100 | ≤ 100 | ≤ 100 | ≤ 100 | ≤ 100 | ≤ 100 | ≤ 100 | ≤ 100 | > 1000 | ≤ 100 | ≤ 100 |  | CCN(c1nc(OC[C@@]23CCCN2C[C@H](F)C3)nc2c(F)c(-c3ccc(F)c4sc(N)c(C#N)c34)c(C(F)(F)F)cc12)[C@H]1CCS(=O)(=O)C1 (atropisomer, axis not shown) [Compound 492] | ≤ 100 | ≤ 100 |  |
| ≤ 100 | ≤ 100 | ≤ 100 | ≤ 100 | ≤ 100 | ≤ 100 | ≤ 100 | ≤ 100 |  | ≤ 100 | ≤ 100 | ≤ 100 | CCN(c1nc(OC[C@@]23CCCN2C[C@H](F)C3)nc2c(F)c(-c3ccc(F)c4sc(N)c(C#N)c34)c(C(F)(F)F)cc12)[C@H]1C[C@H]2CN(C)C(=O)N2C1 (atropisomer, axis not shown; (aS)) [Compound 543, 2-amino-4-((S)-4-(ethyl((6S,7aS)-2-methyl-3-oxohexahydro-1H-pyrrolo[1,2-c]imidazol-6-yl)amino)-8-fluoro-2-(((2R,7aS)-2-fluorotetrahydro-1H-pyrrolizin-7a(5H)-yl)methoxy)-6-(trifluoromethyl)quinazolin-7-yl)-7-fluorobenzo[b]thiophene-3-carbonitrile] | ≤ 100 | ≤ 100 | ≤ 100 |

Reference: patent US20260042764A1, “COMPOSITIONS AND METHODS FOR INHIBITION OF KRAS” (TheRas, Inc., priority 2022, published 2026)
